Among the data in patent publication US20260193250A1, “TOLL-LIKE RECEPTOR 7 AGONISTS AS IMMUNE-STIMULATORS TO ELICIT THE INNATE ANTITUMOR IMMUNITY” (Merck Patent GmbH, priority 2022, published 2026) are EC50 values, retold here.

A value given as a limit tells only on which side of the number the result lay.

This assay addresses T1, hTLR7 (Homo sapiens, UniProt Q9NYK1).
T1 construct: host or cells: HEK-Blue hTLR7 (HEK293-derived SEAP reporter cells)
T1 sequence (Q9NYK1 27-1049): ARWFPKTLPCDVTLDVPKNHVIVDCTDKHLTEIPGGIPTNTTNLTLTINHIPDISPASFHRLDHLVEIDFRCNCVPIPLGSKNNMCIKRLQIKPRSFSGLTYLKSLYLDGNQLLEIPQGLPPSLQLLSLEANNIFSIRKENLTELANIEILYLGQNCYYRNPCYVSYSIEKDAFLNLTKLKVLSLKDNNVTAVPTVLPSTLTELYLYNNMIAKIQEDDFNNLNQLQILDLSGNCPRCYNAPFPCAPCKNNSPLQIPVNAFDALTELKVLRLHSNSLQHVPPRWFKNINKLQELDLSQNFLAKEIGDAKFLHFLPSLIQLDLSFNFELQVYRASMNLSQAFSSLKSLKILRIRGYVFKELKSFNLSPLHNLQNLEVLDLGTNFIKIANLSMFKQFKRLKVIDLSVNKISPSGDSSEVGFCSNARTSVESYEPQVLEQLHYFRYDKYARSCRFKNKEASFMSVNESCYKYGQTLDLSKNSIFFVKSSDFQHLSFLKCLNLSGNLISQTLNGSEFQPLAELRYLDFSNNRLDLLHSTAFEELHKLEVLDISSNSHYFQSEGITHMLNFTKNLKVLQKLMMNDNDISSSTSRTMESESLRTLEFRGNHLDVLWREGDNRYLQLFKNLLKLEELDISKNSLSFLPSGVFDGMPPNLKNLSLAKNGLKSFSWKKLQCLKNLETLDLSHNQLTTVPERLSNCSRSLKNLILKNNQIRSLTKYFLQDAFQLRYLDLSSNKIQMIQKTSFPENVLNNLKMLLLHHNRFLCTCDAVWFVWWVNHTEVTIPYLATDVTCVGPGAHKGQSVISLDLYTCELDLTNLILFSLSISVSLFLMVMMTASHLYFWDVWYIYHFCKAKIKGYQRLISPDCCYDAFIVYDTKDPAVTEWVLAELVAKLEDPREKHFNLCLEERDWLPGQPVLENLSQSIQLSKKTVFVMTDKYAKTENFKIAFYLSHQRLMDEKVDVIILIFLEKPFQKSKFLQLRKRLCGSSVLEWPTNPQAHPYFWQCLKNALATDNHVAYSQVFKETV
The experiment in a line: TLR7 reporter assay in HEK-Blue cells (SEAP, Quanti-Blue). Format: cell-based. The following applies: 24 hours incubation, SEAP absorbance at 620 nm. Here is the method: HEK-Blue™ TLR7 and TLR8 cell lines were obtained from InvivoGen (San Diego, CA, USA). HEK-Blue cells were cultured in DMEM medium hi glucose (Gibco-10569010) supplemented with 10% HI-FBS (Aus origin) (Gibco-10100-147), 1% penicillin/streptomycin (Gibco-15140-122-100 ml) as per manufacturer's recommendation. In addition, specific antibiotic mixtures were added to the culture. 100 μg/ml Zeocin (11006-33-0), 10 μg/ml Blasticidin (ant-bl-05), 50 μg/ml Normocin (ANT-NR-1-500 MG) for HEK-Blue™ hTLR7 and 100 μg/ml Zeocin, 30 μg/ml Blasticidin, 50 μg/ml Normocin for HEK-Blue™ hTLR8 cells (all from InvivoGen).
All the compounds were prepared in 100% DMSO (Sigma-D2650). The compounds were serially diluted in 100% DMSO (3 fold) up to 10 point dose response curve starting with 30 μM; final concentration of DMSO in the plate was 0.3%. Resiquimod and TL8-506 (InvivoGen-tlrl-t18506) were used as controls. 0.3% DMSO and 10 μM Resiquimod were used as min and max respectively, and % activation was calculated using following formula:
% Activation: {100−(max absorbance−absorbance)/(max absorbance−min absorbance)}×100.
For stimulation with TLR7/8 agonists, cells were resuspended in complete media and 40 μl of cell suspension (10,000 cells/well) was seeded on day 1 in 384 well assay plate (Thermo Scientific™ Nunc-164688) having pre-dispensed compounds with Echo Liquid handler. The plate was spun at 100 g for 1 min to settle down the cells and incubated at 37° C. with 5% CO2 for 24 hours. For measuring production of SEAP after 24 hrs of incubation, 10 μl of Quanti-Blue™ solution (InvivoGen rep-qbs2) prepared according to manufacturer's instructions was added in dark to the assay plate and incubated at 37° C. with 5% CO2 for 30 min. Post incubation, the absorbance was measured at 620 nm in Tecan spark (Spark control Magellan). EC50 were determined using Graph Pad Prism Statistical software (Version 7.05), with individual data points represent the absorbance values of duplicates.
Background: In a reporter assay the amount or activity of a reporter protein is the signal.
A word on the EC50: it is the midpoint of the concentration-response curve. Low values mean an effect from little substance, high ones a need for much substance. `CCOCc1nc2c(N)nc3ccccc3c2n1CC(C)(C)OCCCN1CCN(C)CC1` [Example 2] displayed an EC50 of 10 to 100 nM.
The same measure for `CCOCc1nc2c(N)nc3ccccc3c2n1CC(C)(C)OCCCCN1CCN(C)CC1` [Example 3]: under 10 nM.
The same measure for `CCOCc1nc2c(N)nc3ccccc3c2n1CC(C)(C)OCCCCCN1CCN(C)CC1` [Example 4]: under 10 nM; for `CCOCc1nc2c(N)nc3ccccc3c2n1CC(C)(C)OCCCCN1CCOCC1` [Example 7]: 10 to 100 nM; for `CCOCc1nc2c(N)nc3ccccc3c2n1CC(C)(C)OCCCCN1CCCCC1` [Example 8]: 10 to 100 nM.
The same measure for `CCOCc1nc2c(N)nc3ccccc3c2n1CC(C)(C)OCCCCN1CCCC1` [Example 9]: 10 to 100 nM.
For `CCOCc1nc2c(N)nc3ccccc3c2n1CC(C)(C)OCCCCN1CCNCC1` [Example 10], the EC50 lay in the range of 10 to 100 nM.
The figure for `CCOCc1nc2c(N)nc3ccccc3c2n1CC(C)(C)OCCCCN1CCN(CCN)CC1` [Example 11] is 100 to 1000 nM.
The same measure for `CCOCc1nc2c(N)nc3ccccc3c2n1CC(C)(C)OCCCCn1cc(CO)nn1` [Example 13]: 10 to 100 nM; for `CCOCc1nc2c(N)nc3ccccc3c2n1CC(C)(C)OCCCCn1cc(CN)nn1` [Example 14]: 10 to 100 nM.
The figure for `CCNCc1nc2c(N)nc3ccccc3c2n1CC(C)(C)OCCCCN1CCN(C)CC1` [Example 18] is 1000 to 10000 nM; for `CCOCc1nc2c(N)nc3ccccc3c2n1CC(C)(C)OC(=O)CN` [Example 19] it is 100 to 1000 nM.
Compound `CCOCc1nc2c(N)nc3ccccc3c2n1CC(C)(C)OCCCCN1CCN(CC(C)(C)SC)CC1` [Example 27] yielded an EC50 of 10 to 100 nM.
